# Test results taken from a melting point compilation (Tetko et al.; mined from patent text by program, amines drawn as free bases though some values may be those of a salt).
row,SMILES,melting point [°C]
1,Oc1cc(Br)c(Cl)c(Br)c1,120 to 122
2,Cc1[nH]c(Cl)c(C)c1-c1ccnc(Nc2ccc(F)cc2)n1,200 to 203
3,CCOC(=O)c1nc2cc(F)ccc2nc1CC,42 to 45
4,CC(C)NC(=O)NC1CCCc2sccc21 (centres undefined),223 to 226
5,c1cnc2[nH]c(CCCN3CCOCC3)nc2c1,101 to 103
6,COc1ccc2c(n1)c(CCNC(C)=O)c1n2CCCC1,89 to 90
7,CC(C)(C)c1cc(CCC(=O)OC2CC(C)(C)N(OC3CCCCC3)C(C)(C)C2)cc(-n2nc3ccc(Cl)cc3n2)c1O,130 to 136
8,CCOC(=O)c1ccc(NC(=O)Cn2ccnc2)cc1,185 to 187
9,COc1ccc(C2=NNC(=O)[C@H]3CCCC[C@@H]23)cc1OC1CCCC1 (relative stereo),175 to 176
10,CCN(C)c1nc(-c2ccc(OC)cc2)nc2sc(C#N)c(C)c12,122 to 123
11,CCOC(=O)N1CC(C)C2=NNC(=O)CC2C1 (centres undefined),101 to 103
12,O=C(O)C(=CNc1ccc(O)c(=O)cc1)C(=O)O,175 to 176
13,NS(=O)(=O)c1cc(C(=O)CBr)ccc1Cl,169
14,Cc1c(Br)c(C(F)(F)F)nn1C(C)C(=O)N(C)C (centres undefined),86 to 88
15,Cc1cc(C(=O)c2[nH]c3cc(Cl)ccc3c2CC(=O)O)no1,227 to 229
16,Cc1cccc(C)c1NC(=O)C(Cl)Br (centres undefined),148 to 149
17,O=C(O)CCCCc1c([N+](=O)[O-])cc(O)c(O)c1[N+](=O)[O-],135 to 139
18,O=C(c1cc2ccc(Br)cc2o1)C12CC3CC(CC(C3)C1)C2,128 to 130
19,C=COC(=O)N=c1sc2cc(OC(F)(F)F)ccc2n1CCO,190
20,C=CC(=O)NCc1ccc(CCCl)cc1,145 to 147

# Next, values leading:
row,melting point [°C],SMILES
1,152,O=C(O)Cc1cccc(NC(=O)NCC(=O)N2[C@@H](c3ccccc3)CC[C@H]2c2ccccc2)c1
2,144 to 146,CCCN1C(=O)C2(c3ccccc3)CC(c3ccc([N+](=O)[O-])cc3)(C2)C1=O
3,300 to 302,CC(C)c1ccc(C(=O)C2=C(O)C(=O)N(c3ncc(S(=O)(=O)c4ccc([N+](=O)[O-])cc4)s3)C2c2ccc(C(F)(F)F)cc2)cc1 (centres undefined)
4,146 to 147,CC(C)n1nc(-c2sc(C(=O)NC3CC3)nc2-c2cccc(F)c2)ccc1=O
5,142 to 144,CN(c1cccc2cc(C3=NCC(CN4CCSCC4)S3)[nH]c12)S(=O)(=O)c1ccccn1 (centres undefined)
6,50 to 53,COc1ccc(CCC(C)(C)NCC(O)c2cccc(Cl)c2)cc1 (centres undefined)
7,159 to 160,CS(=O)c1ccc(Oc2ccc([N+](=O)[O-])cc2C#N)cc1 (centres undefined)
8,46 to 48,OC(CCCCCCCCOCc1ccccc1)c1ccc(OCc2ccccc2)c(OCc2ccccc2)c1 (centres undefined)
9,115 to 122,COc1cccc(S(=O)(=O)c2ccc3c(c2)c(CCNC(=O)OC(C)(C)C)c(C)n3C)c1
10,151 to 153,COc1ccc(C(=O)N2CCN(CC(=O)N3CC=C(c4cccc(C(F)(F)F)c4)n4ncc(C#N)c43)CC2)cc1
11,94 to 96,CC(C)n1nc(-c2sc(NC(=O)CN(C)CCc3ccccn3)nc2-c2ccccc2)ccc1=O
12,302 to 306,CCn1c(=O)c2nc(C=O)cn2c2ccccc21
13,208 to 211,CC(C)Oc1nccc(-c2c(-c3ccc(F)cc3)ncn2C2CCC(O)CC2)n1 (centres undefined)
14,123 to 125,CCCc1c(OCCCOc2ccc3c(c2)CCC(CC(=O)O)C3=O)ccc(C(C)=O)c1O (centres undefined)
15,163 to 166,CCOc1cc(C2=NNC(=O)[C@H]3CC=CC[C@@H]23)ccc1OC (relative stereo)
16,204,Cc1cccc(COc2ccc(-c3ccc(C(=O)NC(Cc4ccccc4)C(=O)O)cc3)cc2)c1 (centres undefined)
17,188 to 190,O=C1CC2(CC(=O)O1)c1ccccc1Oc1ccccc12
18,117 to 119,O=C(O)c1ccc(NCCCCCCCCCCCOc2ccccc2)cc1
19,104 to 110,CCCc1c(OCCCc2ccc(OC)c(OC)c2)ccc(C(=O)O)c1O
